Test results taken from patent publication US8574563B2 (Bristol-Myers Squibb Company, priority 2006, dated 2013).

Test system: HCV 1b-377-neo replicon cells
Assay: HCV replicon assay, HCV 1b-377-neo replicon cells (1b FRET)
Type: cell-based, Hepatitis C virus genotype 1b
Details: Hepatitis C virus, HCV 1b-377-neo replicon cells; HCV 1b genotype; read-out: EC50 range against HCV 1b (Table 2, Range)
How it was run: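 FRET-based replicon assay in HCV 1b-377-neo cells, including a comparison line carrying the NS5A Y2065H mutation that confers resistance to a reference compound.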

## CN1CCN(C(C(=O)N2CCC[C@H]2c2ncc(-c3ccc(-c4ccc(-c5c[nH]c([C@@H]6CCCN6C(=O)[C@H]6CCCO6)n5)cc4)cc3)[nH]2)c2ccccc2)CC1 (stereo partly drawn) [Example 103-3, 1-methyl-4-(2-oxo-1-phenyl-2-((2S)-2-(5-(4′-(2-((2S)-1-((2R)-tetrahydro-2-furanylcarbonyl)-2-pyrrolidinyl)-1H-imidazol-4-yl)-4-biphenylyl)-1H-imidazol-2-yl)-1-pyrrolidinyl)ethyl)piperazine]
  EC50: 0.001 to 0.999 nM

## O=C([C@@H](c1ccccc1)N1CCCCC1)N1CCC[C@H]1c1ncc(-c2ccc(-c3ccc(-c4cnc([C@@H]5CCCN5C(=O)C5(C(F)(F)F)CC5)[nH]4)cc3)cc2)[nH]1 [Example 107-15, 1-((1R)-2-oxo-1-phenyl-2-((2S)-2-(5-(4′-(2-((2S)-1-((1-(trifluoromethyl)cyclopropyl)carbonyl)-2-pyrrolidinyl)-1H-imidazol-5-yl)-4-biphenylyl)-1H-imidazol-2-yl)-1-pyrrolidinyl)ethyl)piperidine]
  EC50: 0.001 to 0.999 nM

## COC(=O)N[C@@H](C)C(=O)N1C[C@H](F)C[C@H]1c1ncc(-c2ccc(-c3ccc(-c4cnc([C@@H]5C[C@@H](F)CN5C(=O)[C@H](C)NC(=O)OC)[nH]4)cc3)cc2)[nH]1 [JG-3, methyl ((1S)-2-((2S,4R)-4-fluoro-2-(5-(4′-(2-((2S,4R)-4-fluoro-1-(N-(methoxycarbonyl)-L-alanyl)-2-pyrrolidinyl)-1H-imidazol-5-yl)-4-biphenylyl)-1H-imidazol-2-yl)-1-pyrrolidinyl)-1-methyl-2-oxoethyl)carbamate]
  EC50: 0.001 to 0.999 nM

## COC(=O)N[C@H]1CC[C@@H](C(=O)N2CCC[C@H]2c2ncc(-c3ccc(-c4ccc(-c5cnc([C@@H]6CCCN6C(=O)[C@H]6CC[C@@H](NC(=O)OC)CC6)[nH]5)cc4)cc3)[nH]2)CC1 [cj-150, dimethyl (4,4′-biphenyldiylbis(1H-imidazole-5,2-diyl(2S)-2,1-pyrrolidinediylcarbonylcis-4,1-cyclohexanediyl))biscarbamate]
  EC50: 1 to 99 nM

## C[C@H](NC(=O)[C@@H](c1ccccc1)N(C)C)c1ncc(-c2cnc(-c3ccc(-c4cnc([C@@H]5CCCN5C(=O)[C@@H](c5ccccc5)N(C)C)[nH]4)cc3)nc2)[nH]1 [Example 152j-16, (2R)-2-(dimethylamino)-N-((1S)-1-(5-(2-(4-(2-((2S)-1-((2R)-2-(dimethylamino)-2-phenylacetyl)-2-pyrrolidinyl)-1H-imidazol-5-yl)phenyl)-5-pyrimidinyl)-1H-imidazol-2-yl)ethyl)-2-phenylacetamide]
  EC50: 0.001 to 0.999 nM

## CN(C)CC(=O)N[C@@H](C(=O)N1CCC[C@H]1c1ncc(-c2ccc(-c3ccc(-c4cnc([C@@H]5CCCN5C(=O)[C@H](NC(=O)CN(C)C)c5ccccc5)[nH]4)cc3)cc2)[nH]1)c1ccccc1 [Example 25-5, N,N′-(4,4′-biphenyldiylbis(1H-imidazole-5,2-diyl(2S)-2,1-pyrrolidinediyl((1R)-2-oxo-1-phenyl-2,1-ethanediyl)))bis(2-(dimethylamino)acetamide)]
  EC50: 0.001 to 0.999 nM

## CN1CCC(C(=O)N[C@@H](C(=O)N2CCC[C@H]2c2ncc(-c3ccc(-c4ccc(-c5cnc([C@@H]6CCCN6C(=O)[C@@H]6CCCO6)[nH]5)cc4)cc3)[nH]2)c2ccccc2)CC1 [Example 114, 1-methyl-N-((1R)-2-oxo-1-phenyl-2-((2S)-2-(5-(4′-(2-((2S)-1-((2S)-tetrahydro-2-furanylcarbonyl)-2-pyrrolidinyl)-1H-imidazol-5-yl)-4-biphenylyl)-1H-imidazol-2-yl)-1-pyrrolidinyl)ethyl)-4-piperidinecarboxamide]
  EC50: 0.001 to 0.999 nM

## CC(=O)OC(C(=O)N1CCC[C@H]1c1ncc(-c2ccc(-c3ccc(-c4cnc([C@@H]5CCCN5C(=O)[C@@H](c5ccccc5)N5CCCCC5)[nH]4)cc3)cc2)[nH]1)c1ccccc1 (stereo in doubt) [Example 107-21, (1R)-2-oxo-1-phenyl-2-((2S)-2-(5-(4′-(2-((2S)-1-((2R)-2-phenyl-2-(1-piperidinyl)acetyl)-2-pyrrolidinyl)-1H-imidazol-5-yl)-4-biphenylyl)-1H-imidazol-2-yl)-1-pyrrolidinyl)ethyl acetate]
  EC50: 0.001 to 0.999 nM

## COC(=O)N[C@@H](C(=O)N1CCC[C@H]1c1ncc(-c2cnc(-c3ncc(-c4cnc([C@@H]5CCCN5C(=O)[C@H](NC(=O)OC)c5ccccc5)[nH]4)cn3)nc2)[nH]1)c1ccccc1 [Example 153c-4, dimethyl (2,2′-bipyrimidine-5,5′-diylbis(1H-imidazole-5,2-diyl(2S)-2,1-pyrrolidinediyl((1R)-2-oxo-1-phenyl-2,1-ethanediyl)))biscarbamate]
  EC50: 1000 to 10000 nM

## COC(=O)N[C@@H](C(=O)N1CCC[C@H]1c1ncc(-c2ccc(-c3ccc(-c4cnc([C@@H]5CCCN5C(=O)[C@@H]5CCN(Cc6ccccc6)C5)[nH]4)cc3)cc2)[nH]1)c1ccccc1 [Example 84-17, methyl ((1R)-2-((2S)-2-(5-(4′-(2-((2S)-1-(((3R)-1-benzyl-3-pyrrolidinyl)carbonyl)-2-pyrrolidinyl)-1H-imidazol-5-yl)-4-biphenylyl)-1H-imidazol-2-yl)-1-pyrrolidinyl)-2-oxo-1-phenylethyl)carbamate]
  EC50: 0.001 to 0.999 nM

## CCN(CC)[C@@H](C(=O)N1CCC[C@H]1c1ncc(-c2ccc(-c3ccc(-c4[nH]c([C@@H]5CCCN5C(=O)[C@H](C)NC(=O)OC)nc4C(F)(F)F)cc3)cc2)[nH]1)c1ccccc1 [Example J45, methyl ((1S)-2-((2S)-2-(5-(4′-(2-((2S)-1-((2R)-2-(diethylamino)-2-phenylacetyl)-2-pyrrolidinyl)-1H-imidazol-5-yl)-4-biphenylyl)-4-(trifluoromethyl)-1H-imidazol-2-yl)-1-pyrrolidinyl)-1-methyl-2-oxoethyl)carbamate]
  EC50: 0.001 to 0.999 nM

## COC(=O)N[C@H](C(=O)N1[C@@H]2C[C@@H]2C[C@H]1c1nc(-c2ccc(-c3ccc(-c4c[nH]c([C@@H]5C[C@H]6C[C@H]6N5C(=O)[C@@H](NC(=O)OC)C5CC5)n4)cc3)cc2)c[nH]1)C1CC1 [Example M135, dimethyl (4,4′-biphenyl-diylbis(1H-imidazole-4,2-diyl(1R,3S,5R)-2-azabicyclo[3.1.0]hexane-3,2-diyl((1S)-1-cyclopropyl-2-oxo-2,1-ethanediyl)))biscarbamate]
  EC50: 0.001 to 0.999 nM

## COC(=O)N[C@H](C(=O)N1CCC[C@H]1c1ncc(-c2ccc(-c3ccc(-c4nc([C@@H]5CCCN5C(=O)[C@@H](NC(=O)OC)C(C)C)[nH]c4CO)cc3)cc2)[nH]1)C(C)C [Example J14f, methyl ((1S)-1-(((2S)-2-(4-(hydroxymethyl)-5-(4′-(2-((2S)-1-((2S)-2-((methoxycarbonyl)amino)-3-methylbutanoyl)-2-pyrrolidinyl)-1H-imidazol-4-yl)-4-biphenylyl)-1H-imidazol-2-yl)-1-pyrrolidinyl)carbonyl)-2-methylpropyl)carbamate]
  EC50: 0.001 to 0.999 nM

## COC(=O)c1nc([C@@H]2CCCN2C(=O)[C@@H](c2ccccc2)N(C)C)[nH]c1-c1ccc(-c2ccc(-c3cnc([C@@H]4CCCN4C(=O)[C@@H](c4ccccc4)N(C)C)[nH]3)cc2)cc1 [Example J17, methyl 2-((2S)-l-((2R)-2-(dimethylamino)-2-phenylacetyl)-2-pyrrolidinyl)-5-(4′-(2-((2S)-1-((2R)-2-(dimethylamino)-2-phenylacetyl)-2-pyrrolidinyl)-1H-imidazol-5-yl)-4-biphenylyl)-1H-imidazole-4-carboxylate]
  EC50: 0.001 to 0.999 nM

## COC(=O)N[C@H](C(=O)N1CCC[C@H]1c1ncc(-c2ccc(-c3ccc(-c4cnc([C@@H]5CCCN5C(=O)[C@H](NC(=O)OC)c5ccccc5)[nH]4)cc3)cc2)[nH]1)C(C)C [Example M80, methyl ((1S)-1-(((2S)-2-(5-(4′-(2-((2S)-1-((2R)-2-((methoxycarbonyl)amino)-2-phenylacetyl)-2-pyrrolidinyl)-1H-imidazol-5-yl)-4-biphenylyl)-1H-imidazol-2-yl)-1-pyrrolidinyl)carbonyl)-2-methylpropyl)carbamate]
  EC50: 1 to 99 nM

## CCN(CC)[C@@H](C(=O)N1CC(F)(F)C[C@H]1c1ncc(-c2ccc(-c3ccc(-c4cnc([C@@H]5CC(F)(F)CN5C(=O)[C@@H](c5ccccc5)N(CC)CC)[nH]4)cc3)cc2)[nH]1)c1ccccc1 [OL-9, (1R,1′R)-2,2′-(4,4′-biphenyldiylbis(1H-imidazole-4,2-diyl((2S)-4,4-difluoro-2,1-pyrrolidinediyl)))bis(N,N-diethyl-2-oxo-1-phenylethanamine)]
  EC50: 0.001 to 0.999 nM

## COC(=O)N[C@@H](C(=O)N1CCC[C@H]1c1ncc(-c2ccc(-c3ccc(-c4cnc([C@@H]5CCCN5C(=O)[C@@H](c5ccccc5Cl)N(C)C)[nH]4)cc3)cc2)[nH]1)c1ccccc1 [Example 107-36, methyl ((1R)-2-((2S)-2-(5-(4′-(2-((2S)-1-(2R)-2-(2-chlorophenyl)-2-(dimethylamino)acetyl)-2-pyrrolidinyl)-1H-imidazol-5-yl)-4-biphenylyl)-1H-imidazol-2-yl)-1-pyrrolidinyl)-2-oxo-1-phenylethyl) carbamate]
  EC50: 0.001 to 0.999 nM

## CCN(CC)[C@H](C)C(=O)N1CCC[C@H]1c1ncc(-c2ccc(-c3ccc(-c4cnc([C@@H]5CCCN5C(=O)[C@@H](c5ccccc5)N(CC)CC)[nH]4)cc3)cc2)[nH]1 [Example M35, (2R)-1-((2S)-2-(5-(4′-(2-((2S)-1-((2R)-2-(diethylamino)-2-phenylacetyl)-2-pyrrolidinyl)-1H-imidazol-5-yl)-4-biphenylyl)-1H-imidazol-2-yl)-1-pyrrolidinyl)-N,N-diethyl-1-oxo-2-propanamine]
  EC50: 1 to 99 nM

## CN(C)[C@@H](C(=O)N1CCC[C@H]1c1ncc(-c2ccc(-c3ccc(-c4cnc([C@@H]5CCCN5C(=O)[C@@H](c5ccccc5)N5CCCC5)[nH]4)cc3)cc2)[nH]1)c1ccccc1 [Example 90, (1R)-N,N-dimethyl-2-oxo-1-phenyl-2-((2S)-2-(5-(4′-(2-((2S)-1-((2R)-2-phenyl-2-(1-pyrrolidinyl)acetyl)-2-pyrrolidinyl)-1H-imidazol-5-yl)-4-biphenylyl)-1H-imidazol-2-yl)-1-pyrrolidinyl)ethanamine]
  EC50: 0.001 to 0.999 nM

## COC(=O)N[C@@H](C(=O)N1CCC[C@H]1c1ncc(-c2ccc(-c3ccc(-c4cnc([C@@H]5CCCN5C(=O)[C@H](NC(=O)OC)c5ccccc5)[nH]4)cc3CN(C)C)cc2)[nH]1)c1ccccc1 [Example M121]
  EC50: 100 to 999 nM
